# Paper PMC4929432, “The Oligopeptide Permease Opp Mediates Illicit Transport of the Bacterial P-site Decoding Inhibitor GE81112” (Antibiotics, 2016)
# Key:
# [1] = test system: ribosome, 16S rRNA mutation A794U; experiment: In vitro mRNA translation; format: biochemical; settings: E. coli AVS69009 16S rRNA A794U
# Experimental: (§1) The ribosomal localization of GE81112, as determined by a recent crystallographic study, places this antibiotic in a position that is not too far away from the binding site of kasugamycin [20, 21]. For this reason, some ribosomal mutants bearing 16S rRNA base substitutions that cause kasugamycin resistance were tested for their sensitivity to GE81112 inhibition.
# (§2) The 027IF2Cp(A) mRNA and the bacterial S30 cell extracts were prepared as described. The incubation conditions for mRNA translation and for the determination of synthesized product have also been previously described.
# [2] = test system: ribosome, 16S rRNA mutation G926A; experiment: In vitro mRNA translation; format: biochemical; settings: E. coli AVS69009 16S rRNA G926A
# Experimental: as §1, §2
# [3] = test system: ribosome, 16S rRNA wt; experiment: In vitro mRNA translation; format: biochemical; settings: E. coli AVS69009 16S rRNA wt
# Experimental: as §1, §2
# [4] = test system: ribosome, 16S rRNA mutation G926C; experiment: In vitro mRNA translation; format: biochemical; settings: E. coli AVS69009 16S rRNA G926C
# Experimental: as §1, §2
# [5] = test system: ribosome, 16S rRNA mutation G926U; experiment: In vitro mRNA translation; format: biochemical; settings: E. coli AVS69009 16S rRNA G926U
# Experimental: as §1, §2
# [6] = test system: ribosome, 16S rRNA mutation A1518U; experiment: In vitro mRNA translation; format: biochemical; settings: E. coli AVS69009 16S rRNA A1518U
# Experimental: as §1, §2
# [7] = test system: ribosome, 16S rRNA mutation A794G; experiment: In vitro mRNA translation; format: biochemical; settings: E. coli AVS69009 16S rRNA A794G
# Experimental: as §1, §2
# [8] = test system: opp expression; settings: ref [17],[18]; cited from earlier work
# [9] = test system: glutamine synthetase; settings: product of bialaphos hydrolysis; ref [10]; cited from earlier work
# [10] = test system: Opp of B. subtilis; settings: ref [10]; cited from earlier work
# [11] = test system: bacterial peptide transporting systems; settings: ref [10]; cited from earlier work
# Excerpt: Indeed, several peptide transport systems exist in E. coli as well in B. subtilis and the peptides actively transported inside the cells can supp ...
# [12] = test system: B. subtilis resistant clones; experiment: Cross-resistance of resistant clones; format: cell-based; settings: of 10 GE81112-resistant clones
# [13] = test system: Opp; settings: ref [17]; cited from earlier work
# [14] = test system: E. coli MG1655 resistant mutants; experiment: Cross-resistance of resistant mutants; format: cell-based; settings: of 100 GE81112-resistant colonies; tri-L-ornithine 100 μg/mL
# [15] = test system: translation in vivo; settings: early studies; ref [16]; cited from earlier work
# Excerpt: (§3) Therefore, the most likely explanation for the observed tri-L-ornithine/GE81112 cross-resistance is that the mutations have inactivated the same transport mechanism that allows these two molecules to enter the cell.
# [16] = test system: mRNA translation in cell-free extracts; settings: ref [16]; cited from earlier work
# Excerpt: as §3
# [17] = test system: E. coli SS320 (wt) + pB2 + pBΦ30; experiment: Growth inhibition halo; format: cell-based; settings: for Halo of Inhibition: minimal medium agar, 24 h at 37 °C
# Experimental: (§4) The inhibition of bacterial growth by antibiotics was also determined from the diameter of the growth inhibition halo. Bacterial suspensions obtained after overnight growth in minimal medium were diluted and inoculated in 4 mL of Agar–H2O (0.75%) and plated on minimal medium. Ten-microliter spots of the antibiotics were added and the growth inhibition halos measured after 24 h incubation at 37 °C.
# [18] = test system: E. coli SS5012 + pB2 + pBΦ30; experiment: Growth inhibition halo; format: cell-based; settings: for Halo of Inhibition: minimal medium agar, 24 h at 37 °C
# Experimental: as §4
# [19] = test system: E. coli SS5012 + pBΦ30 (oppA); experiment: Growth inhibition halo; format: cell-based; settings: minimal medium agar, 24 h at 37 °C
# Experimental: as §4
# [20] = test system: E. coli MG1655; experiment: Growth inhibition halo; format: cell-based
# Experimental: as §4
# [21] = test system: E. coli SS5012 + pB2 (oppBCDF); experiment: Growth inhibition halo; format: cell-based; settings: minimal medium agar, 24 h at 37 °C
# Experimental: as §4
# [22] = test system: E. coli SS5012 (ΔoppABCDF); experiment: Growth inhibition halo; format: cell-based; settings: for Halo of Inhibition: minimal medium agar, 24 h at 37 °C
# Experimental: as §4
# [23] = test system: E. coli DH5α + pBΦ30 (oppA); experiment: Growth inhibition halo; format: cell-based; settings: 10 μg; minimal medium agar; 24 h at 37 °C
# Experimental: as §4
# [24] = test system: E. coli SS320 (wt); experiment: Growth inhibition halo; format: cell-based; settings: minimal medium agar, 24 h at 37 °C
# Experimental: as §4
# [25] = test system: E. coli DH5α + pB2 (oppBCDF); experiment: Growth inhibition halo; format: cell-based; settings: 10 μg; minimal medium agar; 24 h at 37 °C
# Experimental: as §4
# [26] = test system: E. coli DH5α + pBΦ30 + pB2; experiment: Growth inhibition halo; format: cell-based; settings: 10 μg; minimal medium agar; 24 h at 37 °C
# Experimental: as §4
# [27] = test system: E. coli DH5α; experiment: Growth inhibition halo; format: cell-based
# Experimental: as §4
# [28] = 10 μg, minimal medium agar, 24 h at 37 °C
compound,measurement,setting,value
C[C@H]1O[C@H](O[C@H]2[C@H](O)[C@@H](O)[C@@H](O)[C@H](O)[C@@H]2O)[C@@H](N)C[C@@H]1NC(=N)C(=O)O [Kasugamycin],IC50 of mRNA Translation,[1],384 µg/mL
same,IC50 of mRNA Translation,[2],390 µg/mL
same,IC50 of mRNA Translation,[3],12 µg/mL
same,IC50 of mRNA Translation,[4],192 µg/mL
same,IC50 of mRNA Translation,[5],750 µg/mL
same,IC50 of mRNA Translation,[6],880 µg/mL
same,IC50 of mRNA Translation,[7],780 µg/mL
CC(C)C[C@H](N)C(=O)O [L-leucine],effect on opp expression,[8],induces opp expression
CP(=O)(O)CC[C@H](N)C(=O)O [phosphinothricin],inhibition of glutamine synthetase,[9],inhibits glutamine synthetase
bialaphos,active transport by Opp,[10],actively transported by Opp
same,active transport with antibacterial effects,[11],actively transported inside the cell causing antibacterial effects
same,GE81112-resistant clones sensitive to bialaphos,[12],none
tri-L-alanine,Opp substrate,[13],known non-toxic Opp substrate
tri-L-ornithine [Orn3],number of GE81112-resistant mutants cross-resistant to tri-L-ornithine,[14],100
same,inhibition of translation in vivo,[15],inhibits translation in vivo
same,inhibition of mRNA translation in vitro,[16],unable to inhibit mRNA translation
same,Halo of Inhibition,[17]; 1 μg,17 mm
same,Halo of Inhibition,[17]; 10 μg,27 mm
same,"sensitivity, in words",[17]; wt transformed with both pBΦ30 and pB2,more sensitive
same,Halo of Inhibition,[18]; 1 μg,18 mm
same,Halo of Inhibition,[18]; 10 μg,26 mm
same,"sensitivity, in words",[18]; expression in trans of oppA together with oppBCDF,sensitive
same,Halo of Inhibition,[19]; 1 μg,0 mm
same,Halo of Inhibition,[19]; 10 μg,0 mm
same,Halo of Inhibition,[20]; [28],10 mm
same,"growth inhibition, in words",[20]; E. coli MG1655 (Table 4),inhibited
same,Halo of Inhibition,[21]; 1 μg,0 mm
same,Halo of Inhibition,[21]; 10 μg,0 mm
same,Halo of Inhibition,[22]; 1 μg,0 mm
same,Halo of Inhibition,[22]; 10 μg,0 mm
same,"growth inhibition on minimal medium agar, in words","[22]; E. coli 5012, opp− mutant",insensitive
same,Halo of Inhibition,[23],11 mm
same,Halo of Inhibition,[24]; 1 μg,7 mm
same,Halo of Inhibition,[24]; 10 μg,12 mm
same,Halo of Inhibition,[25],10 mm
same,Halo of Inhibition,[26],14 mm
same,Halo of Inhibition,[27]; [28],0 mm
same,"growth inhibition, in words",[27]; E. coli DH5α (Table 4),unaffected
same,active transport with antibacterial effects,[11],actively transported inside the cell causing antibacterial effects
